# pKi: −log10 of the molar value. Read-outs that look alike come from different tables or passages of the source.
# Assays:
# [1] = molecular target: nAChR α7 (Rattus norvegicus, UniProt Q05941); experiment: Oocyte functional assay, two-electrode voltage clamp (Test C, FIG. 1); details: in words; currents in oocytes expressing nAChR α7 (FIG. 1)
# Description: Xenopus oocytes Xenopus laevis frogs (Xenopus I, Kalamazoo, Mich.) were anesthetized using 0.15% tricaine. Oocytes were removed to OR2 solution: (in mM) 82 NaCl, 2.5 KCl, 5 HEPES, 1.5 NaH2PO4, 1 MgCl2, 0.1 EDTA, pH 7.4. The oocytes were defolliculated by incubation in 25 mL OR2 containing 0.2% collagenase 1A (SIGMA) two times for 60 min on a platform vibrating at 1 Hz and stored in Leibovitz's L-15 medium. Oocytes were injected the following day. Leibovitz's L-15 medium contained 50 μg/mL gentomycin, 10 units/mL penicillin, and 10 μg/mL streptomycin.
# Preparation and injection of cRNA Rat nAChR α7 was cloned in-house (Luhowskyj). Non-polyadenylated cRNA was prepared from cDNA using mMessage mMachine SP6 (Ambion) according to the manufacturer's instructions.
# Recording The external recording solution consisted of (in mM) 90 NaCl, 1 KCl, 1 MgCl2, 1 BaCl2, 5 HEPES, pH 7.4. […] Oocytes were impaled with two electrodes of 1-2 MΩ tip resistance when filled with 3M KCl. Recordings were begun when membrane potential became stable at potentials negative to −20 mV. Membrane potential was clamped at −80 mV unless otherwise noted. ACh, (−) was purchased from SIGMA.
# Calculation of current amplitude and curve fitting Current amplitude was measured from baseline to peak. EC50's, maximal effect, and Hill slopes were estimated by fitting the data to the logistic equation using GraphPad Prism (GraphPad Software, Inc. San Diego, Calif.)
# Data are fit by the logistic equation.
# [2] = Animal models of memory and cognition; details: in vivo
# Description: In a first embodiment of the invention a suitable α7 agonist is spiro[1-azabicyclo[2.2.2]octane-3,5′-oxazolidine-2′-one (Compound 1, Table 1). […] This compound is disclosed in U.S. Pat. No. 5,902,814 the disclosure of which is incorporated herein in its entirety by reference. This compound is active in animal models of memory and cognition.
# [3] = molecular target: T1, α7 nAChR subtype (Rattus norvegicus, UniProt Q05941); experiment: 125I-α-Bungarotoxin (BTX) binding to rat hippocampal membranes (Test A)
# T1 construct: Rat hippocampi were homogenized in 20 volumes of cold homogenisation buffer; from tissue; host or cells: rat hippocampus membranes
# Description: Test A—Assay for Affinity at α7 nAChR Subtype
# Rat hippocampi were homogenized in 20 volumes of cold homogenisation buffer (HB): (in mM): tris(hydroxymethyl)aminomethane 50; MgCl2 1; NaCl 120; KCl 5: pH 7.4). The homogenate was centrifuged for 5 min at 1000 g, the supernatant was saved and the pellet re-extracted. The pooled supernatants were centrifuged for 20 min at 12000 g, washed, and re-suspended in HB.
# (§1) Ki values were estimated using the general Cheng-Prusoff equation (A):
# (§2) where a value of n=1 was used whenever nH<1.5 and a value of n−2 was used when nH≧1.5. Samples were assayed in triplicate and were typically ±5%. Ki values were determined using six or more drug concentrations.
# [4] = molecular target: T2, 5-HT3 (Rattus norvegicus, UniProt P35563); experiment: [3H]zacopride binding to rat small-bowel muscularis membranes (Test B); details: 0.5 nM [3H]zacopride, read-out: Binding Affinity (Ki/nM) 5HT3
# T2 construct: using rat small-bowel muscularis membranes suspended in 50 mM Tris; from tissue; host or cells: rat small-bowel muscularis membranes
# T2 sequence (P35563 24-483): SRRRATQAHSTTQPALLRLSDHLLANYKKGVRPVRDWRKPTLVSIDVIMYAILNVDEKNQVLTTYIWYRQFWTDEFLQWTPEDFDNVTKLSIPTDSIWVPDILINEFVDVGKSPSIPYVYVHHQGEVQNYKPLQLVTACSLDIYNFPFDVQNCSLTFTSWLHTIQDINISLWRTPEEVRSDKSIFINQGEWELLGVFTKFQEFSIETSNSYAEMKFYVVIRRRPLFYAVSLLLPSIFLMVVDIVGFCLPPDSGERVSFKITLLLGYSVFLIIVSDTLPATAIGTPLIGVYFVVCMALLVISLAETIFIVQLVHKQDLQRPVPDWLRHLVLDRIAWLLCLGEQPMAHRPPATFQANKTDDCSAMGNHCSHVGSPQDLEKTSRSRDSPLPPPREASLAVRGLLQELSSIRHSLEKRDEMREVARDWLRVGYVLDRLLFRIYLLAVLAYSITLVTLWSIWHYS
# Description: Test B—Assay for Affinity to the 5-HT3 nAChR Subtype
# [^3]zacoipride binding. […] Incubation was continued for one hour.
# Binding Data Analysis for Tests A and B
# as §1, §2
# [5] = complex spatial memory task, animal models; cited from earlier work
# [6] = fibromyalgia patients treated with tropisetron; cited from earlier work
# Sequence of nAChR α7 (Q05941 23-502): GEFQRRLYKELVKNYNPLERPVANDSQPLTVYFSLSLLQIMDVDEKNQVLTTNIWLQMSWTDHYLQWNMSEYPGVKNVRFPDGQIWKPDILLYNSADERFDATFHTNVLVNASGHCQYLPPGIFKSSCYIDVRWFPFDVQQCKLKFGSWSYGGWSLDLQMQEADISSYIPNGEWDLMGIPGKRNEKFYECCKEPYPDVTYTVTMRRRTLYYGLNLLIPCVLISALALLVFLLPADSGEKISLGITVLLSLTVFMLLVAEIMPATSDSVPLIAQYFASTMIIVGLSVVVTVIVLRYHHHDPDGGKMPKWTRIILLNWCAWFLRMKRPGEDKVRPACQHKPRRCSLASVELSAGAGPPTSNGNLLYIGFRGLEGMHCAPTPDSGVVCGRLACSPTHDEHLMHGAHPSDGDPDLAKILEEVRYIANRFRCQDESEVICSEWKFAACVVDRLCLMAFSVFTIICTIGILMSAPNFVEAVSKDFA
# T1 sequence (Q05941 23-502): as above
Structure (SMILES),activity at the α7 receptor [1],antagonism of spatial navigation impairment [5],other results
"O=C1NC[C@]2(CN3CCC2CC3)O1 [Compound 1, spiro[1-azabicyclo[2.2.2]octane-3,5′-oxazolidine-2′-one]",selective α7 agonist,,activity in animal models of memory and cognition [2]: active
"c1cnc2c(c1)C[C@@]1(CN3CCC1CC3)O2 [Compound 2, spiro[1-azabicyclo[2.2.2]octane-3,2′-(3′H)-furo[2,3-b]pyridine]]",,,"Ki ([3]; [125I]α-BTX 5 nM, rat hippocampal membranes, read-out: Binding Affinity (Ki/nM) α7): 14 nM"
"O=C(NC1CN2CCC1CC2)c1cc(-c2ccccc2)cs1 (stereo not shown) [Compound 3, N-(1-azabicyclo[2.2.2]oct-3-yl)(4-phenylthiophene-2-carboxamide)]",,,pKi [3]: 8.80; Ki [4]: 20000 nM
Cc1nccn1CC1CCc2c(c3ccccc3n2C)C1=O (stereo not shown) [ondansetron],lacked activity,not,
CN1[C@@H]2CC[C@H]1C[C@@H](OC(=O)c1c[nH]c3ccccc13)C2 [tropisetron],potent and selective partial agonist,antagonize spatial navigation impairment,reduction in fibromyalgia symptoms [6]: statistically significant reduction in their symptoms

# From patent US20040259909A1, “Treatment of fibromyalgia syndrome” (priority 2001, published 2004)
